# Test results reported in ChEMBL document CHEMBL3885881, “DrugMatrix”.
# Species: Rattus norvegicus
# Assay: DrugMatrix - Regimen: Daily Repeat
# Format: toxicity, organism-based, Sprague-Dawley
# Parameters: regimen Daily Repeat, gender Male, age 6-8 weeks
# Conditions: in vivo, po, route oral GAVAGE; for BASOPHIL / EOSINOPHIL / ERYTHROCYTE COUNT / HEMATOCRIT / HEMOGLOBIN / LEUKOCYTE COUNT / LYMPHOCYTE / MEAN CORPUSCULAR HEMOGLOBIN / MEAN CORPUSCULAR HEMOGLOBIN CONCENTRATION / MEAN CORPUSCULAR VOLUME / MONOCYTE / NEUTROPHIL / PLATELET COUNT: tissue Blood; for ALANINE AMINOTRANSFERASE / ALBUMIN / ALKALINE PHOSPHATASE / ASPARTATE AMINOTRANSFERASE / BLOOD UREA NITROGEN / CARBON DIOXIDE / CHLORIDE / CHOLESTEROL / CREATINE PHOSPHOKINASE / CREATININE / GLUCOSE / LACTATE DEHYDROGENASE / LIPASE / PHOSPHORUS / POTASSIUM / SODIUM / TOTAL BILIRUBIN / TOTAL PROTEIN / URIC ACID: tissue Plasma
# [1] = 38 mg/kg, 72 h, dose level Low, time 3 day, vehicle 100 % WATER
# [2] = 38 mg/kg, 120 h, dose level Low, time 5 day, vehicle 100 % WATER
# [3] = 0 mg/kg, 72 h, dose level Control, time 3 day, vehicle .5 % CMC
# [4] = 0 mg/kg, 120 h, dose level Control, time 5 day, vehicle .5 % CMC
# [5] = 60 mg/kg, 72 h, dose level Low, time 3 day, vehicle .5 % CMC
# [6] = 60 mg/kg, 120 h, dose level Low, time 5 day, vehicle .5 % CMC
structure (smiles),measurement,setting,value
O=C(O)C1CC1 [CYCLOPROPANE CARBOXYLIC ACID],BASOPHIL,[1],0%
same,EOSINOPHIL,[1],0.67%
same,ERYTHROCYTE COUNT,[1],7.06 x10E6/uL
same,HEMATOCRIT,[1],43.67%
same,HEMOGLOBIN,[1],14.6 G/DL
same,LEUKOCYTE COUNT,[1],8.63 x10E3/uL
same,LYMPHOCYTE,[1],83.67%
same,MEAN CORPUSCULAR HEMOGLOBIN,[1],20.67 pg
same,MEAN CORPUSCULAR HEMOGLOBIN CONCENTRATION,[1],33.47 G/DL
same,MEAN CORPUSCULAR VOLUME,[1],61.77 fL
same,MONOCYTE,[1],2.33%
same,NEUTROPHIL,[1],13.33%
same,PLATELET COUNT,[1],1012 x10E3/uL
same,ALANINE AMINOTRANSFERASE,[1],44.67 u/L
same,ALBUMIN,[1],4.37 G/DL
same,ALKALINE PHOSPHATASE,[1],346.67 u/L
same,ASPARTATE AMINOTRANSFERASE,[1],72.33 u/L
same,BLOOD UREA NITROGEN,[1],15 mg/dL
same,CARBON DIOXIDE,[1],23 mmol/L
same,CHLORIDE,[1],103.67 MEQ/L
same,CHOLESTEROL,[1],65.67 mg/dL
same,CREATINE PHOSPHOKINASE,[1],241.33 u/L
same,CREATININE,[1],0.3 mg/dL
same,GLUCOSE,[1],151 mg/dL
same,LACTATE DEHYDROGENASE,[1],152.33 u/L
same,LIPASE,[1],9 u/L
same,PHOSPHORUS,[1],9.83 mg/dL
same,POTASSIUM,[1],5.7 MEQ/L
same,SODIUM,[1],145.67 MEQ/L
same,TOTAL BILIRUBIN,[1],0.1 mg/dL
same,TOTAL PROTEIN,[1],6.03 G/DL
same,URIC ACID,[1],1.1 mg/dL
same,BASOPHIL,[2],0.33%
same,EOSINOPHIL,[2],1%
same,ERYTHROCYTE COUNT,[2],7.12 x10E6/uL
same,HEMATOCRIT,[2],44.63%
same,HEMOGLOBIN,[2],14.4 G/DL
same,LEUKOCYTE COUNT,[2],10.9 x10E3/uL
same,LYMPHOCYTE,[2],85%
same,MEAN CORPUSCULAR HEMOGLOBIN,[2],20.2 pg
same,MEAN CORPUSCULAR HEMOGLOBIN CONCENTRATION,[2],32.27 G/DL
same,MEAN CORPUSCULAR VOLUME,[2],62.67 fL
same,MONOCYTE,[2],2.33%
same,NEUTROPHIL,[2],12.33%
same,PLATELET COUNT,[2],970.67 x10E3/uL
same,ALANINE AMINOTRANSFERASE,[2],47.33 u/L
same,ALBUMIN,[2],4.6 G/DL
same,ALKALINE PHOSPHATASE,[2],373.67 u/L
same,ASPARTATE AMINOTRANSFERASE,[2],86 u/L
same,BLOOD UREA NITROGEN,[2],17.33 mg/dL
same,CARBON DIOXIDE,[2],20.67 mmol/L
same,CHLORIDE,[2],99.33 MEQ/L
same,CHOLESTEROL,[2],73.67 mg/dL
same,CREATINE PHOSPHOKINASE,[2],418 u/L
same,CREATININE,[2],0.3 mg/dL
same,GLUCOSE,[2],133.33 mg/dL
same,LACTATE DEHYDROGENASE,[2],454 u/L
same,LIPASE,[2],9 u/L
same,PHOSPHORUS,[2],10.13 mg/dL
same,POTASSIUM,[2],5.37 MEQ/L
same,SODIUM,[2],143.33 MEQ/L
same,TOTAL BILIRUBIN,[2],0.1 mg/dL
same,TOTAL PROTEIN,[2],6.53 G/DL
same,URIC ACID,[2],1.03 mg/dL
CC(C)Cc1ccc([C@H](C)C(=O)O)cc1 [DEXIBUPROFEN],BASOPHIL,[3],1.52%
same,EOSINOPHIL,[3],0.98%
same,ERYTHROCYTE COUNT,[3],6.96 x10E6/uL
same,HEMATOCRIT,[3],44.65%
same,HEMOGLOBIN,[3],13.62 G/DL
same,LEUKOCYTE COUNT,[3],9.83 x10E3/uL
same,LYMPHOCYTE,[3],76.48%
same,MEAN CORPUSCULAR HEMOGLOBIN,[3],19.57 pg
same,MEAN CORPUSCULAR HEMOGLOBIN CONCENTRATION,[3],30.47 G/DL
same,MONOCYTE,[3],2.13%
same,NEUTROPHIL,[3],18.6%
same,PLATELET COUNT,[3],1217.17 x10E3/uL
same,ALANINE AMINOTRANSFERASE,[3],41 u/L
same,ALBUMIN,[3],3.77 G/DL
same,ALKALINE PHOSPHATASE,[3],411.83 u/L
same,ASPARTATE AMINOTRANSFERASE,[3],62.83 u/L
same,BLOOD UREA NITROGEN,[3],15.17 mg/dL
same,CHLORIDE,[3],104.33 MEQ/L
same,CHOLESTEROL,[3],71.17 mg/dL
same,CREATINE PHOSPHOKINASE,[3],123.5 u/L
same,CREATININE,[3],0.55 mg/dL
same,GLUCOSE,[3],182.67 mg/dL
same,PHOSPHORUS,[3],11.23 mg/dL
same,POTASSIUM,[3],7.03 MEQ/L
same,SODIUM,[3],148 MEQ/L
same,TOTAL BILIRUBIN,[3],0.57 mg/dL
same,TOTAL PROTEIN,[3],6.85 G/DL
same,BASOPHIL,[4],1.35%
same,EOSINOPHIL,[4],0.43%
same,ERYTHROCYTE COUNT,[4],6.96 x10E6/uL
same,HEMATOCRIT,[4],44.35%
same,HEMOGLOBIN,[4],13.98 G/DL
same,LEUKOCYTE COUNT,[4],9.45 x10E3/uL
same,LYMPHOCYTE,[4],80.83%
same,MEAN CORPUSCULAR HEMOGLOBIN,[4],20.1 pg
same,MEAN CORPUSCULAR HEMOGLOBIN CONCENTRATION,[4],31.52 G/DL
same,MONOCYTE,[4],2.37%
same,NEUTROPHIL,[4],14.05%
same,PLATELET COUNT,[4],1298 x10E3/uL
same,ALANINE AMINOTRANSFERASE,[4],42.17 u/L
same,ALBUMIN,[4],3.77 G/DL
same,ALKALINE PHOSPHATASE,[4],419 u/L
same,ASPARTATE AMINOTRANSFERASE,[4],66.67 u/L
same,BLOOD UREA NITROGEN,[4],16.67 mg/dL
same,CHLORIDE,[4],103.17 MEQ/L
same,CHOLESTEROL,[4],66.33 mg/dL
same,CREATINE PHOSPHOKINASE,[4],148.33 u/L
same,CREATININE,[4],0.58 mg/dL
same,GLUCOSE,[4],196.83 mg/dL
same,PHOSPHORUS,[4],11.8 mg/dL
same,POTASSIUM,[4],6.47 MEQ/L
same,SODIUM,[4],148.33 MEQ/L
same,TOTAL BILIRUBIN,[4],0.53 mg/dL
same,TOTAL PROTEIN,[4],6.77 G/DL
same,BASOPHIL,[5],1.63%
same,EOSINOPHIL,[5],0.33%
same,ERYTHROCYTE COUNT,[5],7.19 x10E6/uL
same,HEMATOCRIT,[5],45.6%
same,HEMOGLOBIN,[5],14.37 G/DL
same,LEUKOCYTE COUNT,[5],11 x10E3/uL
same,LYMPHOCYTE,[5],73.1%
same,MEAN CORPUSCULAR HEMOGLOBIN,[5],19.97 pg
same,MEAN CORPUSCULAR HEMOGLOBIN CONCENTRATION,[5],31.47 G/DL
same,MONOCYTE,[5],2.23%
same,NEUTROPHIL,[5],22.3%
same,PLATELET COUNT,[5],1212.33 x10E3/uL
same,ALANINE AMINOTRANSFERASE,[5],40.33 u/L
same,ALBUMIN,[5],3.57 G/DL
same,ALKALINE PHOSPHATASE,[5],328 u/L
same,BLOOD UREA NITROGEN,[5],13.33 mg/dL
same,CHLORIDE,[5],104 MEQ/L
same,CHOLESTEROL,[5],71 mg/dL
same,CREATINE PHOSPHOKINASE,[5],116 u/L
same,CREATININE,[5],0.6 mg/dL
same,GLUCOSE,[5],170.33 mg/dL
same,PHOSPHORUS,[5],11.63 mg/dL
same,POTASSIUM,[5],6.3 MEQ/L
same,SODIUM,[5],150 MEQ/L
same,TOTAL BILIRUBIN,[5],0.37 mg/dL
same,BASOPHIL,[6],1.23%
same,EOSINOPHIL,[6],0.3%
same,ERYTHROCYTE COUNT,[6],6.82 x10E6/uL
same,HEMATOCRIT,[6],42.17%
same,HEMOGLOBIN,[6],13.37 G/DL
same,LEUKOCYTE COUNT,[6],13 x10E3/uL
same,LYMPHOCYTE,[6],76.73%
same,MEAN CORPUSCULAR HEMOGLOBIN,[6],19.6 pg
same,MEAN CORPUSCULAR HEMOGLOBIN CONCENTRATION,[6],31.67 G/DL
same,MONOCYTE,[6],2.2%
same,NEUTROPHIL,[6],18.83%
same,PLATELET COUNT,[6],1398.33 x10E3/uL
same,ALANINE AMINOTRANSFERASE,[6],34 u/L
same,ALBUMIN,[6],3.5 G/DL
same,ALKALINE PHOSPHATASE,[6],320.33 u/L
same,ASPARTATE AMINOTRANSFERASE,[6],59.67 u/L
same,BLOOD UREA NITROGEN,[6],15.67 mg/dL
same,CHLORIDE,[6],104.67 MEQ/L
same,CHOLESTEROL,[6],70.33 mg/dL
same,CREATINE PHOSPHOKINASE,[6],96 u/L
same,CREATININE,[6],0.53 mg/dL
same,GLUCOSE,[6],186.33 mg/dL
same,PHOSPHORUS,[6],12.03 mg/dL
same,POTASSIUM,[6],6.2 MEQ/L
same,SODIUM,[6],149.33 MEQ/L
same,TOTAL BILIRUBIN,[6],0.3 mg/dL
same,TOTAL PROTEIN,[6],6.27 G/DL
